IC50 data for 33 compounds are collected here from ChEMBL document CHEMBL4699486, “Fragment-based lead discovery of a novel class of small molecule antagonists of neuropeptide B/W receptor subtype 1 (GPR7)” (Bioorg Med Chem Lett, 2020).

Molecules are shown by their SMILES.

The target of the experiment is T1, Neuropeptides B/W receptor type 1 (Homo sapiens, UniProt P48145).
T1 sequence (P48145 whole entry): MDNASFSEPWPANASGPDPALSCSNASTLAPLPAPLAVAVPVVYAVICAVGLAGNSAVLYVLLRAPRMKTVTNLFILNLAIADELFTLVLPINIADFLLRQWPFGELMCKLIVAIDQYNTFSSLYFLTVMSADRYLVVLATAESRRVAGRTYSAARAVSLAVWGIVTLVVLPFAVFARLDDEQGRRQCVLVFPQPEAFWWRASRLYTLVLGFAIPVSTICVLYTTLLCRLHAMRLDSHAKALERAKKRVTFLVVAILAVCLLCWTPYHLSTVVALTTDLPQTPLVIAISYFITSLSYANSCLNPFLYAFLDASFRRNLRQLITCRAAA
Description: Antagonist activity at human NPBWR1 assessed as inhibition of agonist-induced cAMP accumulation by cAMP assay. The class given is functional. A general note: cAMP levels reflect the balance of adenylyl cyclase and phosphodiesterase activity.
As for `FC(F)(F)c1ccc2[nH]c(-c3ccc(-c4ccoc4)cc3)nc2c1`, the IC50 – broadly, the concentration needed to halve the response being measured – turned out to be 1190 nM. As for `Cn1cc(-c2ccc(-c3nc4cc(C(F)(F)F)ccc4[nH]3)cc2)cn1`, the IC50 stood at 1470 nM.

For `Cc1ccc(-c2nc3cc([N+](=O)[O-])ccc3[nH]2)c(C)c1`, the IC50 was found to be 1540 nM. Take `O=[N+]([O-])c1ccc2[nH]c(-c3cccc(Cl)c3)nc2c1`: the IC50 turned out to be 9980 nM. Turning to `Cc1cc(-c2nc3cc([N+](=O)[O-])ccc3[nH]2)ccc1Cl`, the IC50 was 2290 nM. Then `O=[N+]([O-])c1ccc2[nH]c(-c3ccc(-c4ccccc4)cc3)nc2c1`, with 4880 nM. `O=[N+]([O-])c1ccc2[nH]c(-c3ccccc3)nc2c1`: the IC50 was determined as 10000 nM. As for `CC(=O)c1ccc(-c2nc3cc([N+](=O)[O-])ccc3[nH]2)cc1`, the IC50 was determined as 9320 nM.

In the case of `O=[N+]([O-])c1ccc2[nH]c(-c3ccc(C(F)(F)F)cc3)nc2c1`, the IC50 was over 31600 nM. On to `NCc1ccc(-c2ccc(-c3nc4cc(C(F)(F)F)ccc4[nH]3)cc2)cc1`, for which the IC50 was found to be 720 nM. Consider `O=[N+]([O-])c1ccc2nc(-c3ccc(Cl)c(Cl)c3)[nH]c2c1`, for which the IC50 is over 31600 nM.

In the case of `O=[N+]([O-])c1ccc2[nH]c(-c3c(Cl)cc(Cl)cc3I)nc2c1`, the IC50 came out at 205 nM. Regarding `O=[N+]([O-])c1ccc2nc(-c3ccccc3Cl)[nH]c2c1`, the IC50 was determined as 10700 nM.

As to `Nc1ccc(-c2nc3cc([N+](=O)[O-])ccc3[nH]2)cc1`, the IC50 turned out to be 8480 nM. Then `O=[N+]([O-])c1ccc2[nH]c(-c3ccc(Cl)c(Br)c3)nc2c1`, with over 31600 nM; and `O=[N+]([O-])c1ccc2[nH]c(-c3ccccc3N3CCCC3)nc2c1`, with 6770 nM.

With `FC(F)(F)c1ccc2[nH]c(-c3ccc(-c4c[nH]nc4C(F)(F)F)cc3)nc2c1`, the IC50 was found to be 1200 nM. The same measure for `FC(F)(F)c1ccc2[nH]c(-c3ccc(-c4nnc[nH]4)cc3)nc2c1`: 3080 nM; for `COc1ccc(-c2nc3cc([N+](=O)[O-])ccc3[nH]2)cc1`: 6080 nM. Take `O=[N+]([O-])c1ccc2[nH]c(-c3cccc(N4CCCC4)c3)nc2c1`: the IC50 is 6010 nM.

Consider `CCc1ccc(-c2nc3cc([N+](=O)[O-])ccc3[nH]2)cc1`, for which the IC50 stood at 1020 nM. `CC(C)(C)c1ccc(-c2nc3cc([N+](=O)[O-])ccc3[nH]2)cc1`: the IC50 was 3180 nM. As for `O=[N+]([O-])c1ccc2[nH]c(-c3ccc(N4CCCC4)cc3)nc2c1`, the IC50 is 1810 nM. Then `FC(F)(F)c1ccc2[nH]c(-c3ccccc3)nc2c1`, with 1200 nM. As for `O=[N+]([O-])c1ccc2nc(-c3ccc(Cl)cc3)[nH]c2c1`, the IC50 worked out at 2690 nM.

For `Cc1cc(Cl)ccc1-c1nc2cc([N+](=O)[O-])ccc2[nH]1`, the IC50 came out at 2490 nM. As for `CC(=O)c1ccccc1-c1nc2cc([N+](=O)[O-])ccc2[nH]1`, the IC50 is over 31600 nM. For the compound `NS(=O)(=O)c1ccc(-c2nc3cc([N+](=O)[O-])ccc3[nH]2)cc1`, the IC50 was over 31600 nM. Take `O=[N+]([O-])c1ccc2[nH]c(-c3ccc(Cl)cc3Br)nc2c1`: the IC50 stood at 1760 nM. The same measure for `Cc1ccc(-c2nc3cc([N+](=O)[O-])ccc3[nH]2)cc1C`: 1380 nM; for `CC(=O)c1cccc(-c2nc3cc([N+](=O)[O-])ccc3[nH]2)c1`: over 31600 nM; for `Cc1ccc(-c2nc3cc([N+](=O)[O-])ccc3[nH]2)cc1`: 1500 nM. Turning to `O=[N+]([O-])c1ccc2nc(-c3ccc(Cl)cc3Cl)[nH]c2c1`, the IC50 was 2880 nM.
